Experimental findings from ChEMBL document CHEMBL2016574, “Substituted aminopyrimidine protein kinase B (PknB) inhibitors show activity against Mycobacterium tuberculosis” (Bioorg Med Chem Lett, 2012) are described below.

Series [1] deals with T1, Serine/threonine-protein kinase PknF (Mycobacterium tuberculosis) (UniProt P9WI75).
T1 sequence (whole entry): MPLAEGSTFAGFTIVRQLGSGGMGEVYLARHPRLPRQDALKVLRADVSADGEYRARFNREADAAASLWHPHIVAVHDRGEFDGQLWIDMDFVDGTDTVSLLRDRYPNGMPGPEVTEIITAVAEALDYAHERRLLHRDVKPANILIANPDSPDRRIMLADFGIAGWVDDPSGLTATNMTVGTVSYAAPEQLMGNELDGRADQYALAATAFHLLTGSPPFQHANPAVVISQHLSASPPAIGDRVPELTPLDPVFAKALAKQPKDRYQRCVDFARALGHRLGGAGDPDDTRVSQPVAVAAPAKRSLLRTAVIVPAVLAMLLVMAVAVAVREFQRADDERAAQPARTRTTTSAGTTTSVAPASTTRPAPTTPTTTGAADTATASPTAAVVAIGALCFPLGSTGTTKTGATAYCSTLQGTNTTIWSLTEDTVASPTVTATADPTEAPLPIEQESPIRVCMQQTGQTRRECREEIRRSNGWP
The experiment in a line: Inhibition of Mycobacterium tuberculosis PknF.

Series [2] concerns the target Serine/threonine-protein kinase PknG (Mycobacterium tuberculosis) (UniProt P9WI73). As to the kind of experiment: Inhibition of Mycobacterium tuberculosis PknG.
Series [3] can be described thus: Protein binding in plasma. The series is classed as ADME, cell-free. Particulars: read-out: PPB.

Activity calls are given as the source filed them. No cut-off for these calls is given here. A value given as a limit tells only on which side of the number the result lay.

Serine/threonine-protein kinase PknG (Mycobacterium tuberculosis), sequence (P9WI73 whole entry): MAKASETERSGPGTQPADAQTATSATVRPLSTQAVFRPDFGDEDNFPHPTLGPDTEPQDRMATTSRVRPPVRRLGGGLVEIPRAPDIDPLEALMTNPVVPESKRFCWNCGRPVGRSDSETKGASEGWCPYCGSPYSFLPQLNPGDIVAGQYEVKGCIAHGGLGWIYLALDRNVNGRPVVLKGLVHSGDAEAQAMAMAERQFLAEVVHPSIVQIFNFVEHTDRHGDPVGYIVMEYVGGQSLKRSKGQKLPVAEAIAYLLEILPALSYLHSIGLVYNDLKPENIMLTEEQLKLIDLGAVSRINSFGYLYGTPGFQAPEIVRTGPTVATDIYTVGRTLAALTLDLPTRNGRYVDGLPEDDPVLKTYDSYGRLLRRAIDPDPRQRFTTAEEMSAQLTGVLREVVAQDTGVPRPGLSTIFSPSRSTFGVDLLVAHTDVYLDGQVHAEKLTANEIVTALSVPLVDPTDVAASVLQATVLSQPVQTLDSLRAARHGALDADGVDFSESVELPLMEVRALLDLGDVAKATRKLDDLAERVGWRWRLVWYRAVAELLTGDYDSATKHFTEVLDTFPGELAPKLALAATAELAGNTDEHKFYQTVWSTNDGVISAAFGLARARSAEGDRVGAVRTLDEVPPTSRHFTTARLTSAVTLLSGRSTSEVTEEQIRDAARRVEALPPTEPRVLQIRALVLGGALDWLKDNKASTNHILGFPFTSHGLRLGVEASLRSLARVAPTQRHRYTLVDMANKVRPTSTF

`c1cc(Nc2cc(C3CC3)[nH]n2)nc(NCC2CC2)n1`: the inhibition entry in series [1] and in series [2] was “Active” in each case. On to `NC(=O)c1cccc(-c2nccc(Nc3cc(C4CC4)[nH]n3)n2)c1`, for which the inhibition entry in series [1] and in series [2] was “Active” each time. Take `N#Cc1cccc(-c2nccc(Nc3cc(C4CC4)[nH]n3)n2)c1`: the inhibition result in series [1] and in series [2] was “Active” each time.

In the case of `CN(C)[C@@H]1CCN(c2cc(Nc3cc(C(F)(F)F)ccn3)nc(-c3cccc(C#N)c3)n2)C1`, the inhibition entry in series [1] and in series [2] was “Active” each time.

As to `Cc1cc(Nc2nc(-c3ccc(F)cc3)nc3ccccc23)n[nH]1`, the fraction unbound in series [3] was below 0.01. In addition, the inhibition result in series [1] and in series [2] was “Active” throughout.

As for `Cc1cc(Nc2nc(-c3ccncc3)nc3ccccc23)n[nH]1`, the inhibition result in series [1] and in series [2] was “Active” each time. Take `c1ccc2c(Nc3cc(C4CC4)n[nH]3)nc(NCC3CC3)nc2c1`: the fraction unbound in series [3] is below 0.01. Consider `CS(=O)(=O)c1cccc(-c2nccc(Nc3cc(C4CC4)[nH]n3)n2)c1`, for which the inhibition entry in series [1] and in series [2] was “Active” each time. Regarding `CC(C)CCNc1nccc(Nc2cc(C3CC3)[nH]n2)n1`, the inhibition entry in series [1] and in series [2] was “Active” each time. In the case of `c1ccc(-c2nc(Nc3cc(C4CC4)n[nH]3)c3ccccc3n2)cc1`, the fraction unbound in series [3] is below 0.01.

Turning to `c1cncc(-c2nccc(Nc3cc(C4CC4)[nH]n3)n2)c1`, the inhibition result in series [1] and in series [2] was “Active” in each case.

As to `c1ccc(-c2nc(Nc3cc(C4CC4)[nH]n3)cc(OCCN3CCCC3)n2)cc1`, the inhibition entry in series [1] and in series [2] was “Active” throughout.

As to `Fc1ccc(-c2nc(Nc3cc(C4CC4)[nH]n3)c3ccccc3n2)cc1`, the inhibition entry in series [1] and in series [2] was “Active” throughout.

In the case of `c1ccc(CNc2nccc(Nc3cc(C4CC4)[nH]n3)n2)cc1`, the inhibition entry in series [1] and in series [2] was “Active” throughout. Regarding `CN1CCC(CNc2cc(Nc3cc(C4CC4)[nH]n3)nc(-c3cccc(S(C)(=O)=O)c3)n2)CC1`, the inhibition entry in series [1] and in series [2] was “Active” each time. As for `CN1CCN(c2cc(Nc3cc(C4CC4)[nH]n3)nc(-c3ccccc3)n2)CC1`, the inhibition result in series [1] and in series [2] was “Active” each time. `CN(C)[C@@H]1CCN(c2cc(Nc3cc(C4CC4)[nH]n3)nc(-c3cccc(C#N)c3)n2)C1`: the inhibition result in series [1] and in series [2] was “Active” in each case. Take `Clc1ccccc1CCNc1nccc(Nc2cc(C3CC3)[nH]n2)n1`: the inhibition entry in series [1] and in series [2] was “Active” each time. As for `COc1ccnc(Nc2cc(N3CC[C@@H](N(C)C)C3)nc(-c3ccccc3)n2)c1`, the inhibition entry in series [1] and in series [2] was “Active” in each case.

Turning to `Fc1ccc(-c2nccc(Nc3cc(C4CC4)[nH]n3)n2)cc1`, the inhibition result in series [1] and in series [2] was “Active” each time. `CN(C)[C@@H]1CCN(c2cc(Nc3cc(Cl)ccn3)nc(-c3ccccc3)n2)C1`: the inhibition result in series [1] and in series [2] was “Active” in each case. For `CN(C)[C@@H]1CCN(c2cc(Nc3cc(C4CC4)[nH]n3)nc(-c3ccccc3)n2)C1`, the inhibition result in series [1] and in series [2] was “Active” each time.

For the compound `c1ccc2c(Nc3cc(C4CC4)[nH]n3)nc(NCC3CC3)nc2c1`, the inhibition entry in series [1] and in series [2] was “Active” in each case. As to `CN(C)[C@@H]1CCN(c2cc(Nc3ccccn3)nc(-c3cccc(C#N)c3)n2)C1`, the inhibition entry in series [1] and in series [2] was “Active” each time. On to `c1ccc2c(Nc3cc(C4CC4)[nH]n3)nc(-c3ccncc3)nc2c1`, for which the inhibition entry in series [1] and in series [2] was “Active” each time. On to `c1ccc2c(Nc3cc(C4CC4)n[nH]3)nc(-c3ccncc3)nc2c1`, for which, in series [3], the fraction unbound was below 0.01. Take `CS(=O)(=O)NCc1ccc(-c2nccc(Nc3cc(C4CC4)[nH]n3)n2)cc1`: the inhibition entry in series [1] and in series [2] was “Active” each time. For the compound `CS(=O)(=O)Nc1cccc(-c2nccc(Nc3cc(C4CC4)[nH]n3)n2)c1`, the inhibition entry in series [1] and in series [2] was “Active” each time. Regarding `CN1CCC(CNc2cc(Nc3cc(C4CC4)[nH]n3)nc(-c3cccc(C#N)c3)n2)CC1`, the inhibition result in series [1] and in series [2] was “Active” each time. For the compound `c1cc(Nc2cc(C3CC3)[nH]n2)nc(NC2CCCCC2)n1`, the inhibition result in series [1] and in series [2] was “Active” each time. Regarding `CN1CCC(Nc2cc(Nc3cc(C4CC4)[nH]n3)nc(-c3ccccc3)n2)CC1`, the inhibition result in series [1] and in series [2] was “Active” throughout. As to `CN(C)CCNc1cc(Nc2cc(C3CC3)[nH]n2)nc(-c2ccccc2)n1`, the inhibition result in series [1] and in series [2] was “Active” in each case. On to `CN(C)CCNc1cc(Nc2cc(C3CC3)[nH]n2)nc(-c2cccc(C#N)c2)n1`, for which the inhibition result in series [1] and in series [2] was “Active” each time. As to `c1ccc(-c2nc(Nc3cc(C4CC4)[nH]n3)c3ccccc3n2)cc1`, the inhibition entry in series [1] and in series [2] was “Active” throughout.

As to `c1cc(Nc2cc(C3CC3)[nH]n2)nc(NC2CCCC2)n1`, the inhibition entry in series [1] and in series [2] was “Active” in each case. In the case of `Fc1ccc(-c2nc(Nc3cc[nH]n3)c3ccccc3n2)cc1`, in series [3], the fraction unbound is below 0.01. The inhibition result in series [1] and in series [2] was “Active” throughout. Consider `c1ccc2c(Nc3cc(C4CC4)[nH]n3)nc(NC3CCCCC3)nc2c1`, for which the fraction unbound in series [3] was below 0.01. In addition, the inhibition entry in series [1] and in series [2] was “Active” in each case. For `Fc1cccc(CCNc2nccc(Nc3cc(C4CC4)[nH]n3)n2)c1`, the inhibition entry in series [1] and in series [2] was “Active” each time.

With `Fc1ccc(-c2nc(Nc3cc(C4CC4)n[nH]3)c3ccccc3n2)cc1`, in series [3], the fraction unbound is below 0.01.

Consider `CN1CCC(CNc2cc(Nc3cc(C4CC4)[nH]n3)nc(-c3ccccc3)n2)CC1`, for which the inhibition result in series [1] and in series [2] was “Active” each time.
